{
  "source": "patent US8772297B2",
  "about": "“TGF-β signal transduction inhibitor” (Kyoto University, priority 2010, dated 2014)",
  "key": {"[1]": {"test_system": "mouse bile duct ligation induced hepatic fibrosis model", "test": "Anti-fibrillization action in mouse bile duct ligation induced hepatic fibrosis model (BDL model)", "format": "in vivo", "conditions": "ICR mice, tail vein once a day for 14 days, qPCR vs GAPDH, FIG. 4", "protocol": "Hepatopathy caused by accumulation of bile in the liver and therewith associated liver fibrillization are induced by ligating the bile duct of mouse. The effect of the test compound on the hepatopathy and liver fibrillization associated therewith was evaluated. […]\nmRNA was extracted from the hepatic tissue preserved in RNALater by using an RNA purification kit RNeasy Micro Kit (manufactured by QIAGEN), and the RNA concentration was determined using a spectrophotometer (Nano Drop). […] Using SYBR® Premix EX Taq™ (manufactured by TAKARA), a reaction mixture was prepared according to the package insert, qPCR reaction was performed using respective primers for αSMA and the internal standard GAPDH (manufactured by Invitrogen), and the mRNA expression level was quantified."}, "liver Kupffer cells": {"test_system": "liver Kupffer cells", "test": "Influence on activation of liver Kupffer cells in primary culture system", "format": "cell-based", "conditions": "rat primary culture, 7 days", "protocol": "Wistar rat (bred under SPF, male, 15-week-old) was subjected to laparotomy under pentobarbital anesthesia, a catheter was inserted into the portal vein, and perfusion was performed successively with a washing solution for hemorrhage, a 0.06% pronase solution (manufactured by Carbiochem), and a 0.03% collagenase (manufactured by Wako Pure Chemical Industries, Ltd.) solution. Then, the liver was isolated and incubated in a liver Kupffer cell separation buffer containing 0.057% pronase and 0.057% collagenase, and supplemented with 2 mg/mL DNaseI (1 mL, manufactured by Roche Diagnostics) in a warm bath at 36° C. for 30 min. During this period, the pH of the lysate was maintained at 7.2-7.4 with 1N NaOH. Then, the hepatic tissue digestive product was filtered through a mesh, a liver Kupffer cell separation buffer was added to the obtained filtrate to the total amount of 150 mL. The mixture was dispensed to three 50-mL polypropylene tubes, and centrifuged at 4° C., 2000 rpm for 8 min. […]\nOn the other hand, respective cells were washed with phosphate buffer (PBS: phosphate buffered saline) 7 days later, and fixed with 4% para-formaldehyde at room temperature for 10 min. […] Then, the cells were washed with PBST, and the α smooth muscle actin (αSMA) expression level was observed under a fluorescence microscope."}, "ARPE-19 cells": {"test_system": "ARPE-19 cells", "test": "Evaluation of TGF-β-induced epithelial-mesenchymal transition (EMT) inhibitory activity", "format": "cell-based", "conditions": "human TGF-β2 10 ng/mL and human TNF 10 ng/mL, 2 days, Giemsa stain, FIG. 1", "protocol": "Human retinal pigment epithelial cells (ARPE-19 cells) were seeded in a 96 well plate at a concentration of 1.2×10^4 cells/well, and cultured overnight (5% CO2, 37° C.) in DMEM/F12 medium containing 10% fetal bovine serum, penicillin (100 U/mL), streptomycin (100 μg/mL) and Hepes (10 mM). The next day, the medium was changed to a serum-free medium, and a test compound was added. After 1 hr, the cells were stimulated with human TGF-β2 (10 ng/mL) and human TNF (10 ng/mL). After culture for 2 days, the cells were stained with Giemsa, and the influence of the compound on the formation of cell aggregates was evaluated."}},
  "data": [
    {"smiles": "CN(C)c1ccc(NS(=O)(=O)c2cccc(S(=O)(=O)NCC3CCN(C(=O)OC(C)(C)C)CC3)c2)cc1-c1ccco1", "note": "[Y244, 4-{[3-(4-dimethylamino-3-furan-2-yl-phenylsulfamoyl)benzenesulfonylamino]methyl}piperidine-1-carboxylic acid tert-butyl ester]", "values": [
      {"measurement": "mRNA expression level of α smooth muscle actin in the liver tissue", "setting": "[1]", "result": "significantly suppressed"},
      {"measurement": "expression of α smooth muscle actin associated with the activation of liver Kupffer cells", "setting": "liver Kupffer cells; Cy3-labeled anti-αSMA antibody, fluorescence microscope, FIG. 3", "result": "remarkably suppressed"},
      {"measurement": "cell morphology change caused by the activation of liver Kupffer cells", "setting": "liver Kupffer cells; bright field, FIG. 2", "result": "suppressed"},
      {"measurement": "EMT induced by TGF-β (formation of cell aggregates)", "setting": "ARPE-19 cells", "result": "remarkably suppressed"}
    ]}
  ]
}
